The text below walks through data of publication PMC10011573, “Development of novel broad-spectrum antimicrobial lipopeptides derived from plantaricin NC8 β” (Scientific Reports, 2023).

One series deals with E. cloacae. The note with it: 20 h.
For the next series, the system named is P. aeruginosa. As to conditions: 20 h.
Another series concerns A. baumannii. The note with it: 20 h.
The test system of the next series is K. pneumoniae. The note with it: 20 h.
Another series relates to E. faecium. As to conditions: 20 h.
Series [1] relates to E. coli (K-12 MG1655).
The subject of series [2] is S. aureus (ATCC 29213, MSSA). As to conditions: ATCC 29213, 20 h.
Series [3] is described as follows: Carboxyfluorescein release assay, mammalian liposome model. It counts as biochemical. As to conditions: 65:5:30 POPC:POPS:Chol. liposomes, 25 µM lipid, 10 mM PBS pH 7.4, 10^–5–10^2 µM peptide, 60 min, fluorescence, Hill fit, n = 3; read-out: EC50 Mammalial (concentration that triggers 50% CF release). In outline:
(§1)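 CF-loaded extruded 0.1 µm unilamellar liposomes: bacterial POPC:POPG 75:25, mammalian POPC:POPS:Chol 65:5:30. Liposomes at 25 µM lipid in PBS pH 7.4 incubated with peptide (10^–5–10^2 µM; n = 3), fluorescence read every 2.5 min for 1 h. Release normalized to 1% Triton X-100; EC50 from Hill-1 fit.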

The nature of series [4]: Carboxyfluorescein release assay, bacterial liposome model. The series is classed as biochemical. The note with it: 75:25 POPC:POPG liposomes, 25 µM lipid, 10 mM PBS pH 7.4, 10^–5–10^2 µM peptide, 60 min, fluorescence, Hill fit, n = 3; read-out: EC50 Bacterial (concentration that triggers 50% CF release). In outline:
as §1

The subject of series [5] is E. coli (K-12 MG1655). The series is classed as cell-based. The note with it: K-12, 20 h.
Experimental: The broth microdilution method was used to determine minimal inhibitory concentration (MIC) and minimal bactericidal concentration (MBC), in accordance with the EUCAST standards for the broth microdilution method. Two-fold serial dilutions of the lipopeptides were used, and the final concentrations ranged from 0.19 to 100 µM. In brief, two-fold serial dilutions of the lipopeptides were performed in a 96-well plate in PBS, with a final volume of 100 µl per well, after which 100 µl of LB-broth media containing approximately 5 × 10^5 CFU/ml of bacteria was added to each well. The plate was then incubated for 20 h in 37 °C on a shaker (400 rpm). The effect of lipopeptide-antibiotic combinations was investigated by performing checkerboard assays. The assays were performed in accordance with the MIC and MBC tests conducted above, but with horizontal and longitudinal two-fold serial dilutions of the tested compounds. […] The fractional inhibitory concentration (FIC) and fractional bactericidal concentration (FBC) were calculated by the equation (MIC or MBC of peptide in combination/MIC or MBC of peptide alone) + (MIC or MBC of antibiotic in combination/MIC or MBC of antibiotic alone). Synergy was defined as FIC/FBC ≤ 0.5, additive when 0.5 < FIC/FBC ≤ 1, indifferent when 1 < FIC/FBC < 2 and antagonistic when FIC/FBC ≥ 2. All experiments were repeated at least three times.
A further series concerns S. aureus (ATCC 29213). It counts as cell-based. The note with it: ATCC 29213, 20 h. How it is done: The broth microdilution method was used to determine minimal inhibitory concentration (MIC) and minimal bactericidal concentration (MBC), in accordance with the EUCAST standards for the broth microdilution method. […] In brief, two-fold serial dilutions of the lipopeptides were performed in a 96-well plate in PBS, with a final volume of 100 µl per well, after which 100 µl of LB-broth media containing approximately 5 × 10^5 CFU/ml of bacteria was added to each well. The plate was then incubated for 20 h in 37 °C on a shaker (400 rpm). The effect of lipopeptide-antibiotic combinations was investigated by performing checkerboard assays. The assays were performed in accordance with the MIC and MBC tests conducted above, but with horizontal and longitudinal two-fold serial dilutions of the tested compounds. […] The fractional inhibitory concentration (FIC) and fractional bactericidal concentration (FBC) were calculated by the equation (MIC or MBC of peptide in combination/MIC or MBC of peptide alone) + (MIC or MBC of antibiotic in combination/MIC or MBC of antibiotic alone). […] All experiments were repeated at least three times.

In a further series the test system is human erythrocytes. As to the kind of experiment: Hemolytic activity. The series is classed as cell-based. The note with it: 15% suspension in PBS, 1 h, 37 °C, absorbance 540 nm, highest tested concentration 100 µM. The method, then:
The hemolytic activity of the lipopeptides was investigated by collecting blood from healthy volunteers in heparinized vacutainers. Briefly, the blood was centrifuged at 600 × g for 5 min and the erythrocyte pellet was washed three times in PBS. The cells were then suspended in PBS and added to 96-well plates (15% erythrocyte suspension/well), containing the lipopeptides with two-fold serial dilution. The plates were incubated for 1 h at 37 °C followed by centrifugation for 5 min at 900×g and absorbance measurement of the supernatants at 540 nm. Hemolytic activity (%) was calculated by subtracting the negative control from all values and normalization against the positive control (0.5% Triton X-100), that was set to 100%. All experiments, each in duplicate, were repeated three times.

Series [6] is described as follows: Dynamic light scattering, critical aggregation concentration. As to conditions: DLS scattering intensity at 90°, 10 mM PBS pH 7.4, serial dilution 100 µM to 0.01 nM, 22 °C, average of 10 runs of 30 s; estimated. The series is classed as physicochemical. How it is done: Lipopeptide aggregation was evaluated on a ALV/CGS-8F Platform (ALV-GmbH, Langen, Germany) equipped with a […] He–Ne laser. Scattered light was collected at 90°. PBS (10 mM, pH 7.4) was chosen as buffer, and filtered with a 0.22 µm filter prior to use. The samples were prepared in a cylindrical glass cuvette immersed in refractive-index matching toluene. The peptides were serially diluted between 100 µM and 0.01 nM, sonicated for 1 min and incubated for 5 min at 22 °C and vortexed prior to measuring. The temperature was controlled throughout the experiment with the use of a circulating water bath. Data were analysed with ALV-Correlator (Version 3.0, ALV-GmbH, Langen, Germany) software, and the scattering intensity was obtained through an average of 10 consecutive 30 s runs.

Setting [7] is: Table 3, K-12 MG1655, broth microdilution, 50:50 PBS/LB-broth, 200 µL, 20 h, 37 °C.

Read-outs that look alike come from different tables or passages of the source. Non-standard residues stand in square brackets, D forms with d. Residues, ends and D or L forms follow the SMILES beside them. No end group written: not given here. *: point of attachment. Heptanoyl = CCCCCCC(=O)*; Pentanoyl = CCCCC(=O)*

Turning to `CCCCC(=O)N[C@H](CC(C)C)C(=O)NCC(=O)N[C@H](CC(C)C)C(=O)N[C@H](CCCCN)C(=O)N[C@H](CC(C)C)C(=O)N[C@H](CC(C)C)C(=O)N[C@H](Cc1c[nH]c2ccccc12)C(=O)N[C@H](CO)C(=O)N[C@H](C)C(=O)N[C@H](Cc1ccc(O)cc1)C(=O)N[C@H](CCCCN)C(=O)N[C@H](Cc1c[nH]cn1)C(=O)N[C@H](CCCNC(=N)N)C(=O)N[C@H](CCCCN)C(=O)N[C@@H](C(=O)N[C@H](CC(C)C)C(N)=O)[C@H](C)O` [D-6-C5-Leu] (Pentanoyl-[dL]G[dL][dK][dL][dL][dW][dS][dA][dY][dK][dH][dR][dK][dT][dL]-NH2), the minimum bactericidal concentration (MBC) is recorded as 50 µM in the series with E. cloacae; 25 µM in the series with P. aeruginosa; 3.1 µM in the series on A. baumannii; 25 µM with K. pneumoniae; 3.1 µM in the series on E. faecium. Further, the minimum inhibitory concentration (MIC) was 25 µM with E. cloacae; 12.5 µM in the series on P. aeruginosa; 3.1 µM in the series with A. baumannii; 12.5 µM in the series with K. pneumoniae; 3.1 µM in the series on E. faecium. Further, the “E. coli MBC” value in the series on E. coli (K-12 MG1655) [1] (setting [7]) worked out at 3.1 µM. Further, the “E. coli MIC” value with E. coli (K-12 MG1655) [1] (setting [7]) is reported as 3.1 µM. In series [2], the “S. aureus MBC” value is given as 3.1 µM. Moreover, the “S. aureus MIC” value in series [2] was 3.1 µM. Besides, the values for the EC50 in [3] and in series [4] were 4.08 µM and 0.13 µM, respectively. The “E. coli MBC, lipopeptide alone” value with E. coli (K-12 MG1655) [5] is 3.1 µM. Also, the “E. coli MIC, lipopeptide alone” value in the series on E. coli (K-12 MG1655) [5] is 3.1 µM. Besides, the “S. aureus MBC, lipopeptide alone” value in the series with S. aureus (ATCC 29213) is reported as 3.1 µM. Also, the “S. aureus MIC, lipopeptide alone” value with S. aureus (ATCC 29213) is recorded as 3.1 µM. The “HC, hemolytic concentration at 5% hemolytic activity” value (shortened to “HC … at 5% hemolytic activity”) in the series with human erythrocytes is listed as above 100 µM.
Consider `CCCCC(=O)N[C@H](CC(C)C)C(=O)NCC(=O)N[C@@H](C(=O)N[C@H](CCCCN)C(=O)N[C@@H](C(=O)N[C@H](CC(C)C)C(=O)N[C@H](Cc1c[nH]c2ccccc12)C(=O)N[C@H](CO)C(=O)N[C@H](C)C(=O)N[C@H](Cc1ccc(O)cc1)C(=O)N[C@H](CCCCN)C(=O)N[C@H](Cc1c[nH]cn1)C(=O)N[C@H](CCCNC(=N)N)C(=O)N[C@H](CCCCN)C(=O)N[C@@H](C(=O)N[C@@H](C(N)=O)[C@H](C)CC)[C@H](C)O)[C@H](C)CC)[C@H](C)CC` [D-6-C5] (Pentanoyl-[dL]G[dI][dK][dI][dL][dW][dS][dA][dY][dK][dH][dR][dK][dT][dI]-NH2), for which the minimal bactericidal concentration (MBC) with E. cloacae came to 50 µM; in the series on P. aeruginosa, 50 µM; in the series with A. baumannii it was 3.1 µM; with K. pneumoniae, 50 µM; in the series with E. faecium, 3.1 µM. For the same compound, the MIC in the series on E. cloacae turned out to be 25 µM; in the series on P. aeruginosa it was 25 µM; in the series on A. baumannii, 3.1 µM; in the series on K. pneumoniae, 25 µM; in the series on E. faecium it was 3.1 µM. Also, the “E. coli MBC” value with E. coli (K-12 MG1655) [1] (setting [7]) is given as 3.1 µM. Besides, the “E. coli MIC” value in the series with E. coli (K-12 MG1655) [1] (setting [7]) is 3.1 µM. The “S. aureus MBC” value in series [2] came to 6.2 µM. In series [2], the “S. aureus MIC” value is given as 3.1 µM. The EC50 worked out at 13.1 µM in [3] and 0.12 µM in series [4]. Further, the “E. coli MIC, lipopeptide alone” value in the series with E. coli (K-12 MG1655) [5] is on record as 3.1 µM. The “S. aureus MIC, lipopeptide alone” value in the series with S. aureus (ATCC 29213) was 3.1 µM. The “HC … at 5% hemolytic activity” value in the series with human erythrocytes was above 100 µM.
For the compound `CCCCC(=O)N[C@@H](CC(C)C)C(=O)NCC(=O)N[C@@H](CC(C)C)C(=O)N[C@@H](CCCCN)C(=O)N[C@@H](CC(C)C)C(=O)N[C@@H](CC(C)C)C(=O)N[C@@H](Cc1c[nH]c2ccccc12)C(=O)N[C@@H](CO)C(=O)N[C@@H](C)C(=O)N[C@@H](Cc1ccc(O)cc1)C(=O)N[C@@H](CCCCN)C(=O)N[C@@H](Cc1c[nH]cn1)C(=O)N[C@@H](CCCNC(=N)N)C(=O)N[C@@H](CCCCN)C(=O)N[C@H](C(=O)N[C@@H](CC(C)C)C(N)=O)[C@@H](C)O` [L-6-C5-Leu] (Pentanoyl-LGLKLLWSAYKHRKTL-NH2), the minimum bactericidal concentration (MBC) is recorded as above 100 µM in the series with E. cloacae; 50 µM with P. aeruginosa; 3.1 µM in the series on A. baumannii; 50 µM with K. pneumoniae; 6.3 µM in the series with E. faecium. For the same compound, the MIC in the series on E. cloacae is above 100 µM; with P. aeruginosa, 25 µM; in the series on A. baumannii it was 3.1 µM; in the series on K. pneumoniae, 25 µM; in the series with E. faecium it was 3.1 µM. Besides, the “E. coli MBC” value in the series with E. coli (K-12 MG1655) [1] (setting [7]) is 6.2 µM. Moreover, the “E. coli MIC” value in the series with E. coli (K-12 MG1655) [1] (setting [7]) was determined as 6.2 µM. Also, the “S. aureus MBC” value in series [2] stood at 3.1 µM. Besides, the “S. aureus MIC” value in [2] worked out at 3.1 µM. In addition, the EC50 was 3.99 µM in series [3] and 0.11 µM in series [4]. Besides, the “HC … at 5% hemolytic activity” value in the series with human erythrocytes is recorded as above 100 µM.
As for `CCCCCCC(=O)N[C@@H](CC(C)C)C(=O)NCC(=O)N[C@H](C(=O)N[C@@H](CCCCN)C(=O)N[C@H](C(=O)N[C@@H](CC(C)C)C(=O)N[C@@H](Cc1c[nH]c2ccccc12)C(=O)N[C@@H](CO)C(=O)N[C@@H](C)C(=O)N[C@@H](Cc1ccc(O)cc1)C(=O)N[C@@H](CCCCN)C(=O)N[C@@H](Cc1c[nH]cn1)C(=O)N[C@@H](CCCNC(=N)N)C(=O)N[C@@H](CCCCN)C(=O)N[C@H](C(=O)N[C@H](C(N)=O)[C@@H](C)CC)[C@@H](C)O)[C@@H](C)CC)[C@@H](C)CC` [L-6-C7] (Heptanoyl-LGIKILWSAYKHRKTI-NH2), in the series on E. coli (K-12 MG1655) [1] (setting [7]), the “E. coli MBC” value is 6.2 µM and the “E. coli MIC” value stood at 6.2 µM. In series [2], the “S. aureus MBC” value came out at 3.1 µM and the “S. aureus MIC” value is on record as 3.1 µM. Moreover, in series [6], the “critical aggregation concentration (CAC)” value was 0.8 µM. For the same compound, the EC50 in [3] amounted to 1.95 µM. Further, in series [4], the EC50 is 0.22 µM. Further, in the series with human erythrocytes, the “HC … at 5% hemolytic activity” value turned out to be 80 µM.
On to LGIKILWSAYKHRKTI-NH2 [L-6], for which, in the series with E. coli (K-12 MG1655) [1] (K-12, 20 h), the “E. coli MBC” value is given as above 100 µM and the “E. coli MIC” value is recorded as above 100 µM. In [2], the “S. aureus MBC” value was above 100 µM and the “S. aureus MIC” value is listed as above 100 µM. Moreover, the “critical aggregation concentration (CAC)” value in series [6] was 10 µM. The EC50 in [3] was above 100 µM. In addition, the EC50 in series [4] turned out to be 0.15 µM.
